The values that follow come from article PMC11637378, “Optogenetic screening of MCT1 activity implicates a cluster of non-steroidal anti-inflammatory drugs (NSAIDs) as inhibitors of lactate transport” (PLOS ONE, 2024).

Each structure is given as a SMILES string. Several values for one entry are separate records, joined by “and”; a condition that tells them apart may be missing. Equal values may be shown once.

The term viability denotes a read-out of living cells in per cent, often relative to untreated cells.

One assay concerns MCT1. As to conditions: library annotation, cited from earlier work.
The test system of assay [1] is parent strain (SAWy518).
The subject of assay [2] is parent strain (SAWy518). Briefly: microbe, parasite or virus in culture. Details: species or system Saccharomyces cerevisiae SAWy518; Off-target growth counter-screen, OD600 as per cent of untreated wells, strain lacking MCT1. As to conditions: 18.5 h; sheet Primary Screen - final;; off-target growth of parent strain, about 18 h.

For `O=c1c(O)c(-c2ccc(O)c(O)c2)oc2cc(O)cc(O)c12` [Quercetin dihydrate], in the assay with MCT1, the “MCT1 inhibition (annotation)” value was “Known MCT1 inhibitor, PI3-K and PDE inhibitor (flavanoid)”. In the assay with parent strain (SAWy518) [1], the Offscreen_18hr was 0.7753, the Offscreen_24hr stood at 0.8789 and the Offscreen_42hr is 0.9377.
In the case of `O=c1c(O)c(-c2ccc(O)c(O)c2)oc2cc(O)cc(O)c12` [Quercetin (Sophoretin)], the “MCT1 inhibition (annotation)” value in the assay with MCT1 is “PI3K, PKC, Src, Sirtuin inhibitor, MCT1 inhibitor - flavanoid”. Further, in the assay on parent strain (SAWy518) [1], the Offscreen_18hr was determined as 0.7827, the Offscreen_24hr is reported as 0.8834 and the Offscreen_42hr stood at 0.9444.
On to `O=c1c(O)c(-c2ccc(O)c(O)c2)oc2cc(O)cc(O)c12` [Quercetin, reference compound], for which, in the assay on MCT1 (NOTES/Group column, ref not given), the MCT1 inhibitor annotation entry is “Known MCT1 inhibitor, PI3-K and PDE inhibitor (flavanoid)”. Also, in the assay with MCT1, the “Known MCT1 inhibitor” value is “Known MCT1 inhibitor, PI3-K and PDE inhibitor (flavanoid)”. Further, in the assay on parent strain (SAWy518) [1], the OffScreen_percentage turned out to be 96.0719 percentage, the Offscreen_18hr was found to be 0.7753, the Offscreen_24hr was 0.8789 and the Offscreen_42hr is recorded as 0.9377. In addition, the Read_percentage in the assay with parent strain (SAWy518) [1] came out at 96.0719 percentage.
On to `N#CC(=C(\N)Sc1ccccc1N)/C(C#N)=C(/N)Sc1ccccc1N` [U0126], for which the viability at 10 µM in the assay with parent strain (SAWy518) [2] worked out at 91.1%. In the assay on parent strain (SAWy518) [1], the OffScreen_percentage is on record as 91.0905 percentage, the Offscreen_18hr was found to be 0.7351, the Offscreen_24hr is 0.8786 and the Offscreen_42hr is given as 0.95. Besides, in the assay on parent strain (SAWy518) [1], the Read_percentage was determined as 91.0905.
For `CC(C)(Oc1ccc(C2CC2(Cl)Cl)cc1)C(=O)O` (stereo not drawn) [Ciprofibrate], in the assay on parent strain (SAWy518) [2], the viability at 10 µM came to 92.4%. Further, in the assay with parent strain (SAWy518) [1], the OffScreen_percentage was 92.3916 percentage, the Offscreen_18hr amounted to 0.7456, the Offscreen_24hr amounted to 0.866 and the Offscreen_42hr came to 0.9088. For the same molecule, the Read_percentage in the assay with parent strain (SAWy518) [1] worked out at 92.3916 percentage.
Regarding `CC(C)Cn1cnc2c(N)nc3ccccc3c21` [Imiquimod], the viability at 10 µM with parent strain (SAWy518) [2] is 104%. Besides, in the assay with parent strain (SAWy518) [1], the OffScreen_percentage worked out at 103.68 percentage, the Offscreen_18hr was found to be 0.8367, the Offscreen_24hr turned out to be 0.9119 and the Offscreen_42hr is reported as 0.9751. Further, the Read_percentage in the assay with parent strain (SAWy518) [1] was determined as 103.68 percentage.
As for `CCC(C)n1ncn(-c2ccc(N3CCN(c4ccc(OCC5COC(Cn6cncn6)(c6ccc(Cl)cc6Cl)O5)cc4)CC3)cc2)c1=O` (stereo not drawn) [Itraconazole], the viability at 10 µM in the assay on parent strain (SAWy518) [2] was found to be 90.9%. In addition, in the assay with parent strain (SAWy518) [1], the OffScreen_percentage was found to be 90.9418 percentage, the Offscreen_18hr was determined as 0.7339, the Offscreen_24hr amounted to 0.8546 and the Offscreen_42hr stood at 0.8998. Also, in the assay with parent strain (SAWy518) [1], the Read_percentage is 90.9418 percentage.
`C=CC[C@@H]1/C=C(\C)C[C@H](C)C[C@H](OC)[C@H]2O[C@@](O)(C(=O)C(=O)N3CCCC[C@H]3C(=O)O[C@H](/C(C)=C/[C@@H]3CC[C@@H](O)[C@H](OC)C3)[C@H](C)[C@@H](O)CC1=O)[C@H](C)C[C@@H]2OC` [Tacrolimus]: the viability at 10 µM in the assay on parent strain (SAWy518) [2] is 90.1%. In the assay with parent strain (SAWy518) [1], the OffScreen_percentage is listed as 90.0867 percentage; the Offscreen_18hr was 0.727 and 0.685; the Offscreen_24hr is 0.8973 and 0.8833; the Offscreen_42hr was 0.9661 and 0.9834. For the same molecule, in the assay with parent strain (SAWy518) [1], the Read_percentage was 90.0867.
For the molecule `COc1ccc2c(c1)OCc1c-2oc2cc(OC)ccc12` [Dehydrovariabilin], the viability at 10 µM with parent strain (SAWy518) [2] was determined as 93.8%. Also, in the assay on parent strain (SAWy518) [1], the OffScreen_percentage stood at 93.7794 percentage, the Offscreen_18hr was 0.7568, the Offscreen_24hr was determined as 0.8766 and the Offscreen_42hr turned out to be 0.938. In the assay on parent strain (SAWy518) [1], the Read_percentage came out at 93.7794 percentage.
Turning to `CCN(CC)CCNC(=O)c1c(C)[nH]c(/C=C2\C(=O)Nc3ccc(F)cc32)c1C.O=C(O)C[C@H](O)C(=O)O` [Sunitinib Malate], the viability at 10 µM with parent strain (SAWy518) [2] was determined as 101%. In addition, in the assay on parent strain (SAWy518) [1], the OffScreen_percentage was 101.351 percentage, the Offscreen_18hr turned out to be 0.8179, the Offscreen_24hr stood at 0.9023 and the Offscreen_42hr is 0.9606. Besides, the Read_percentage with parent strain (SAWy518) [1] is 101.351.
Regarding `C[C@@H]1CC[C@@]2(OC1)O[C@H]1[C@@H](O)[C@H]3[C@@H]4CC[C@H]5C[C@@H](O[C@@H]6O[C@H](CO)[C@H](O[C@@H]7O[C@H](CO)[C@@H](O)[C@H](O[C@@H]8OC[C@@H](O)[C@H](O)[C@H]8O)[C@H]7O[C@@H]7O[C@H](CO)[C@H](O)[C@H](O[C@@H]8O[C@H](CO)[C@@H](O)[C@H](O)[C@H]8O)[C@H]7O)[C@H](O)[C@H]6O)[C@H](O)C[C@]5(C)[C@H]4CC[C@]3(C)[C@H]1[C@@H]2C` [Digitonin], in the assay with parent strain (SAWy518) [2], the viability at 10 µM amounted to 103%. Besides, in the assay with parent strain (SAWy518) [1], the OffScreen_percentage is listed as 103.408 percentage, the Offscreen_18hr was 0.8345, the Offscreen_24hr worked out at 0.9181 and the Offscreen_42hr came out at 0.9758. In addition, the Read_percentage in the assay with parent strain (SAWy518) [1] was found to be 103.408 percentage.
For the molecule `CC1=C(C)C(=O)C(C(CCCCCC(=O)O)c2ccccc2)=C(C)C1=O` (stereo not drawn) [Seratrodast], the viability at 10 µM in the assay with parent strain (SAWy518) [2] amounted to 94%. Further, in the assay on parent strain (SAWy518) [1], the OffScreen_percentage was found to be 93.9777 percentage, the Offscreen_18hr is 0.7584, the Offscreen_24hr stood at 0.8726 and the Offscreen_42hr is given as 0.927. Besides, in the assay on parent strain (SAWy518) [1], the Read_percentage is reported as 93.9777.
For `O=C1Nc2ccc(Cl)cc2[C@@](C#CC2CC2)(C(F)(F)F)O1` [Efavirenz], the viability at 10 µM in the assay with parent strain (SAWy518) [2] is 96.8%. In the assay with parent strain (SAWy518) [1], the OffScreen_percentage was found to be 96.803 percentage, the Offscreen_18hr is 0.7812, the Offscreen_24hr stood at 0.8701 and the Offscreen_42hr is 0.9373. For the same molecule, the Read_percentage in the assay on parent strain (SAWy518) [1] is 96.803 percentage.
Consider `N#Cc1c(O)c2c(-c3ccc(-c4ccccc4O)cc3)csc2[nH]c1=O` [A-769662], for which the viability at 10 µM with parent strain (SAWy518) [2] was determined as 102%. Further, in the assay with parent strain (SAWy518) [1], the OffScreen_percentage was determined as 102.02 percentage, the Offscreen_18hr was found to be 0.8233, the Offscreen_24hr came out at 0.9004 and the Offscreen_42hr is 0.9609. The Read_percentage with parent strain (SAWy518) [1] was found to be 102.02 percentage.
As for `CC1(C)O[C@@H]2C[C@H]3[C@@H]4C[C@H](F)C5=CC(=O)C=C[C@]5(C)[C@H]4[C@@H](O)C[C@]3(C)[C@]2(C(=O)CO)O1` [Flunisolide], the viability at 10 µM with parent strain (SAWy518) [2] worked out at 95.6%. In the assay on parent strain (SAWy518) [1], the OffScreen_percentage was 95.601 percentage, the Offscreen_18hr was 0.7715, the Offscreen_24hr turned out to be 0.8893 and the Offscreen_42hr amounted to 0.9469. Also, the Read_percentage in the assay on parent strain (SAWy518) [1] came to 95.601 percentage.
With `COc1ccc(CCN(C)CCCOc2ccc(S(=O)(=O)c3c(C(C)C)c4ccccc4n3C)cc2)cc1OC.O=C(O)C(=O)O` [SR-33805], the viability at 10 µM in the assay with parent strain (SAWy518) [2] worked out at 96%. Also, in the assay with parent strain (SAWy518) [1], the OffScreen_percentage came out at 95.9851 percentage, the Offscreen_18hr is 0.7746, the Offscreen_24hr is reported as 0.9061 and the Offscreen_42hr amounted to 0.9635. Moreover, the Read_percentage in the assay with parent strain (SAWy518) [1] came out at 95.9851.
